The source of these data is patent publication US7495104B2, “Quinoline or quinazoline derivatives inhibiting auto-phosphorylation of fibroblast growth factor receptors” (Kirin Beer Kabushiki Kaisha, priority 2001, dated 2009).

pIC50: −log10 of the molar value. Structures can show the parent of a compound that is named as a salt.

Chain of Bek (P21802 431-767 limits assumed): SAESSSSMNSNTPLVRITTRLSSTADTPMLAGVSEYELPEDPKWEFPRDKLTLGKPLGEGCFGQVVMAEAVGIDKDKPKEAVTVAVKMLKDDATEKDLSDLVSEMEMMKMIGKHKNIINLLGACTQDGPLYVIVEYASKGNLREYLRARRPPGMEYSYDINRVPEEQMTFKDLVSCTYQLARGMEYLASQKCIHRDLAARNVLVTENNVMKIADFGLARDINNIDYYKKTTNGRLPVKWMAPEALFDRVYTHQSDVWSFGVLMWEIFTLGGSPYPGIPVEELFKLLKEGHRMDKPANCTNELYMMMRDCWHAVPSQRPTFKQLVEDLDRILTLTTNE

The target of the experiment is Bek (Homo sapiens, UniProt P21802). Kind of experiment: Inhibitory activity against Bek-autophosphorylation using ELISA method in OCUM-2MD3 cells. Type of experiment: cell-based. Conditions: 1 hr with compound, read-out: IC50 (concentration necessary for inhibiting 50% of Bek-phosphorylation). On the procedure:
Human scirrhus stomach cancer cells OCUM-2MD3 (kindly provided by Dr. Kosei Hirakawa, Osaka City University) were cultured in an RPMI medium containing 10% fetal calf serum (purchased from ICN) within a 5% carbon dioxide incubator until 50 to 90% confluent. The harvested cells were seeded onto 96-well flat-bottom plate in RPMI containing 0.1% fetal calf serum at 3.5×10^4 cells per well, followed by cultivation at 37° C. overnight. A solution of the test compound in dimethyl sulfoxide was added to each well, and the cultivation was continued at 37° C. for additional one hr. The medium was removed, and 50 μl of lysis buffer (20 mM HEPES (pH 7.4), 150 mM NaCl, 0.2% Triton X-100, 10% glycerol, 5 mM sodium orthovanadylate, 5 mM disodium ethylenediaminetetraacetate, and 2 mM Na4P2O7) was then added thereto. The mixture was shaken at 4° C. for 2 hr to prepare cell extracts.
Separately, phosphate buffered saline (50 μl, pH 7.4) containing 5 μg/ml of anti-phospho-tyrosine antibody (PY20; purchased from Transduction Laboratories) was added to a microplate for ELISA (Maxisorp; purchased from NUNC), followed by standing at 4° C. overnight to form a solid phase on the wells. After washing of the plate, 300 μl of a blocking solution was added, followed by standing at room temperature for 2 hr to perform blocking. After washing, the whole quantity of the cell extracts was transferred to the wells, and the plate was then allowed to stand at 4° C. overnight. After washing, an anti-Bek antibody (Bek (C-17), purchased from Santa Cruz Biotechnology) or Anti-Human K-sam Rabbit IgG Affinity Purity (purchased from IBL Co., Ltd.) was allowed to react at room temperature for one hr, and, after washing, a peroxidase-labeled anti-rabbit Ig antibody (purchased from Amersham) was allowed to react at room temperature for one hr. After washing, a chromophoric substrate for peroxidase (purchased from Sumitomo Bakelite Co., Ltd.) was added thereto to initiate a reaction. After a suitable level of color development, a reaction termination solution was added to stop the reaction, and the absorbance at 450 nm was measured with a microplate reader. The Bek-phosphorylation activity for each well was determined by presuming the absorbance without the addition of the medicament to be 100% Bek-phosphorylation activity and the absorbance with the addition of a large excess of a positive control (N-{4-[(6,7-dimethoxy-4-quinolyl)oxy]phenyl}-N′-(3,3-dimethylbutyl)urea, 1000 nM) to be 0% Bek-phosphorylation activity. The concentration of the test compound was varied on several levels, the Bek-phosphorylation inhibitory activity was determined for each case, and the concentration of the test compound necessary for inhibiting 50% of Bek-phosphorylation (IC50) was calculated.
A general note: An ELISA detects its analyte on a solid surface through an enzyme-linked reagent.
Regarding `COc1cc2c(Oc3ccc(Nc4ccc(C(C)(C)C)cc4)c(F)c3)ccnc2cc1OCCN1CCC(O)CC1` [Compound 287, 1-(2-{4-[4-(4-Tert-butyl-phenylamino)-3-fluoro-phenoxy]-6-methoxy-quinolin-7-yloxy}-ethyl)-piperidin-4-ol], the pIC50 is 6.59.

For the compound `COc1cc2nccc(Oc3ccc(NC(=O)NCCC(C)(C)C)cc3)c2cc1OCC(O)CN(C)C` (centres unmarked) [Compound 226, 1-{4-[6-(3-Dimethylamino-2-hydroxy-propoxy)-7-methoxy-quinolin-4-yloxy]-phenyl}-3-(3,3-dimethyl-butyl)-urea], the pIC50 was 7.55.

In the case of `COc1cc2c(Oc3ccc(NC(=O)NCCC(C)(C)C)c(Cl)c3)ccnc2cc1OCCCN(CCO)CCO` [Compound 184, 1-[4-(7-{3-[Bis-(2-hydroxy-ethyl)-amino]-propoxy}-6-methoxy-quinolin-4-yloxy)-2-chloro-phenyl]-3-(3,3-dimethyl-butyl)-urea], the pIC50 was 8.04.

`COc1cc2c(Oc3ccc(NC(=O)NCCC(C)(C)C)cc3)ccnc2cc1OCCN1CCC(N2CCCCC2)CC1` [Compound 123, 1-{4-[7-(2-[1,4′]bipiperidineyl-1′-yl-ethoxy)-6-methoxy-quinolin-4-yloxy]-phenyl}-3-(3,3-dimethyl-butyl)-urea]: the pIC50 was > 8.00.

Consider `COc1cc2c(Oc3ccc(NC(=O)NCCC(C)(C)C)cc3)ccnc2cc1OCCCN1CCCCC1` [Compound 154, 1-(3,3-Dimethyl-butyl)-3-{4-[6-methoxy-7-(3-piperidin-1-yl-propoxy)-quinolin-4-yloxy]-phenyl}-urea hydrochloride], for which the pIC50 is 7.61.

As to `COc1cc2c(Oc3ccc(Nc4ccc(C(C)(C)C)cc4)cc3)ccnc2cc1OCC1CCCN1C` (centres unmarked) [Compound 58, (4-Tert-butylphenyl)-{4-[6-methoxy-7-(1-methylpyrrolidin-2-ylmethoxy)quinolin-4-yloxy]phenyl}amine], the pIC50 was 5.92.

`COc1cc2c(Oc3ccc(Nc4ccc(C(C)(C)C)cc4)cc3)ccnc2cc1OCCN1CCC(N2CCCCC2)CC1` [Compound 242, {4-[7-(2-[1,4′]Bipiperidineyl-1′-yl-ethoxy)-6-methoxy-quinolin-4-yloxy]-phenyl}-(4-tert-butyl-phenyl)-amine]: the pIC50 is 6.40.

For the compound `COc1cc2c(Oc3ccc(NC(=O)NCCC(C)(C)C)cc3F)ccnc2cc1OCCCN1CCC(CCO)CC1` [Compound 298, 1-(3,3-Dimethyl-butyl)-3-[3-fluoro-4-(7-{3-[4-(2-hydroxy-ethyl)-1-piperidin-1-yl]-propoxy}-6-methoxy-quinolin-4-yloxy)-phenyl]-urea], the pIC50 was 7.38.

Regarding `COc1cc2c(Oc3ccc(NC(=O)NCCC(C)(C)C)c(Cl)c3)ccnc2cc1OCCN1CCCC1` [Compound 165, 1-{2-Chloro-4-[6-methoxy-7-(2-pyrrolidin-1-yl-ethoxy)-quinolin-4-yloxy]-phenyl}-3-(3,3-dimethyl-butyl)-urea], the pIC50 was 7.16.

Consider `COc1cc2c(Oc3ccc(NC(=O)NCCC(C)(C)C)c(Cl)c3)ccnc2cc1OCC(O)CN1CCOCC1` (centres unmarked) [Compound 195, 1-{2-Chloro-4-[7-(2-hydroxy-3-morpholin-4-yl-propoxy)-6-methoxy-quinolin-4-yloxy]-phenyl}-3-(3,3-dimethyl-butyl)-urea], for which the pIC50 was > 8.00.

As for `COc1cc2c(Oc3ccc(Nc4ccc(C(C)(C)C)cc4)cc3)ccnc2cc1OCCN(CCO)C1CCCCC1` [Compound 364, 2-[(2-{4-[4-(4-Tert-butyl-phenylamino)-phenoxy]-6-methoxy-quinolin-7-yloxy}-ethyl)-cyclohexyl-amino]-ethanol], the pIC50 is 6.64.

`COc1cc2c(Oc3ccc(NC(=O)NCCC(C)(C)C)cc3F)ccnc2cc1OCCN1CC(C)OC(C)C1` (centres unmarked) [Compound 128, 1-(3,3-Dimethyl-butyl)-3-(4-{7-[2-(2,6-dimethyl-morpholin-4-yl)-ethoxy]-6-methoxy-quinolin-4-yloxy}-3-fluoro-phenyl)-urea]: the pIC50 was > 8.00.

For `COc1cc2nccc(Oc3ccc(NC(=O)NCCC(C)(C)C)cc3)c2cc1OCCCN1CCC(CO)CC1` [Compound 323, 1-(3,3-Dimethyl-butyl)-3-(4-{6-[3-(4-hydroxymethyl-piperidin-1-yl)-propoxy]-7-methoxy-quinolin-4-yloxy}-phenyl)-urea], the pIC50 was 6.43.

With `COc1cc2c(Oc3ccc(NC(=O)NCCC(C)(C)C)c(Cl)c3)ccnc2cc1OCC(O)CN1CCCCCC1` (centres unmarked) [Compound 194, 1-{4-[7-(3-Azepan-1-yl-2-hydroxy-propoxy)-6-methoxy-quinolin-4-yloxy]-2-chloro-phenyl}-3-(3,3-dimethyl-butyl)-urea], the pIC50 is 7.71.

As for `COc1cc2c(Oc3ccc(Nc4ccc(C(C)(C)C)cc4)cc3)ccnc2cc1OCCCCN1CCCCC1` [Compound 36, (4-Tert-butylphenyl)-{4-[6-methoxy-7-(4-piperidin-1-ylbutoxy)-quinolin-4-yloxy]phenyl}amine], the pIC50 was 6.61.

For `CCCN1CCC(COc2cc3nccc(Oc4ccc(Nc5ccc(C(C)(C)C)cc5)cc4)c3cc2OC)CC1` [Compound 42, (4-Tert-butylphenyl)-{4-[6-methoxy-7-(1-propylpiperidin-4-ylmethoxy)quinolin-4-yloxy]phenyl}amine], the pIC50 was 6.40.

With `COc1cc2c(Oc3ccc(Nc4ccc(C(C)(C)C)cc4)cc3Cl)ccnc2cc1OCCN1CCC(CCO)CC1` [Compound 313, 2-[1-(2-{4-[4-(4-Tert-butyl-phenylamino)-2-chloro-phenoxy]-6-methoxy-quinolin-7-yloxy}-ethyl)-piperidin-4-yl]-ethanol], the pIC50 is 6.43.

`CCN(CC)CC(O)COc1cc2nccc(Oc3ccc(NC(=O)NCCC(C)(C)C)c(Cl)c3)c2cc1OC` (centres unmarked) [Compound 191, 1-{2-Chloro-4-[7-(3-diethylamino-2-hydroxy-propoxy)-6-methoxy-quinolin-4-yloxy]-phenyl}-3-(3,3-dimethyl-butyl)-urea]: the pIC50 is 7.97.

As for `COc1cc2c(Oc3ccc(Nc4ccc(C(C)(C)C)cc4)cc3)ccnc2cc1OCCN(CCO)CCO` [Compound 48, 2-[(2-{4-[4-(4-Tert-butyl-phenylamino)phenoxy]-6-methoxy-quinolin-7-yloxy}ethyl)-(2-hydroxyethyl)amino]ethanol], the pIC50 was 7.47.

For the compound `COc1cc2c(Oc3ccc(Nc4ccc(C(C)(C)C)cc4)c(Cl)c3)ccnc2cc1OCCN1CCC(O)CC1` [Compound 278, 1-(2-{4-[4-(4-Tert-butyl-phenylamino)-3-chloro-phenoxy]-6-methoxy-quinolin-7-yloxy}-ethyl)-piperidin-4-ol], the pIC50 is 5.95.

Consider `COc1cc2nccc(Oc3ccc(NC(=O)NC(C)(C)CC(C)(C)C)cc3)c2cc1OC` [Compound 143, 1-[4-(6,7-Dimethoxy-quinolin-4-yloxy)-phenyl]-3-(1,1,3,3-tetramethyl-butyl)-urea], for which the pIC50 is 6.72.

Take `COc1cc2c(Oc3ccc(Nc4ccc(C(C)(C)C)cc4)cc3)ncnc2cc1OCCN1CCOCC1` [Compound 78, (4-Tert-butylphenyl)-{4-[6-methoxy-7-(2-morpholin-4-ylethoxy)quinazolin-4-yloxy]phenyl}amine]: the pIC50 was 6.56.

In the case of `COc1cc2c(Oc3ccc(NC(=O)NCCC(C)(C)C)c(F)c3)ccnc2cc1OCCN1CCC(CCO)CC1` [Compound 301, 1-(3,3-Dimethyl-butyl)-3-[2-fluoro-4-(7-{2-[4-(2-hydroxy-ethyl)-piperidin-1-yl]-ethoxy}-6-methoxy-quinolin-4-yloxy)-phenyl]-urea], the pIC50 is 7.42.

`COc1cc2nccc(Oc3ccc(NC(=O)NCCC(C)(C)C)cc3)c2cc1OCCCN1CCC(O)CC1` [Compound 322, 1-(3,3-Dimethyl-butyl)-3-(4-{6-[3-(4-hydroxy-piperidin-1-yl)-propoxy]-7-methoxy-quinolin-4-yloxy}-phenyl)-urea]: the pIC50 was 6.61.

As to `CCN(CCO)CCCOc1cc2nccc(Oc3ccc(NC(=O)NCCC(C)(C)C)cc3)c2cc1OC` [Compound 343, 1-(3,3-Dimethyl-butyl)-3-[4-(7-{3-[ethyl-(2-hydroxy-ethyl)-amino]-propoxy}-6-methoxy-quinolin-4-yloxy)-phenyl]-urea], the pIC50 is > 8.00.

Regarding `COc1cc2nccc(Oc3ccc(Nc4ccsc4)cc3)c2cc1OC` [Compound 73, [4-(6,7-Dimethoxyquinolin-4-yloxy)phenyl]thiophen-3-ylamine], the pIC50 is 5.45.
